In patent publication US20200163984A1, “USE OF ISOVALERYL SPIRAMYCIN I, II AND/OR III IN MANUFACTURING MEDICAMENT FOR TREATING AND/OR PREVENTING TUMOR, AND MEDICAMENT” (SHENYANG FUYANG PHARMACEUTICAL TECHNOLOGY CO., LTD., priority 2017, published 2020):

Tests used:
[1] = system: transplanted tumor of human gastric adenocarcinoma cell SGC7901; assay: SGC7901 transplanted tumor in nude mice
Protocol: (§1) Then cell concentration was adjusted to 1×10^7/ml with matrigel, then each nude mouse was inoculated subcutaneously with 0.2 ml of cells at its right armpit and recorded as the first day of inoculation. When the tumor grows to be greater than or equal to 100 mm^3, the mice were randomly divided into 11 groups with 6 mice in each group: a model group, a cyclophosphamide group, isovaleryl spiramycin I groups with doses of 25, 50 and 100 mg/kg, isovaleryl spiramycin II groups with doses of 25, 50 and 100 mg/kg, and isovaleryl spiramycin III groups with doses of 25, 50 and 100 mg/kg. Each group was continuously administered intragastrically for 30 days with a dose of 20 ml/kg. The mice were sacrificed the next day after drug withdrawal and the indicators were tested. The long diameter and short diameter of the tumor, and the body weight of each mouse were recorded every 3 days from drug administration to nude mouse sacrifice.
(§2) The body weight of the nude mice and the long diameter (a) and short diameter (b) of the transplanted tumor were measured every 3 days, and the tumor volume (v), relative tumor volume (RTV) and relative tumor proliferation rate (T/C) are calculated respectively according to the following formulas, wherein V=a×b^2/2; RTV=V/V0 (V0 is the tumor volume before administration, V is the tumor volume before sacrifice), and T/C (%)=treatment group RTV/model control group RTV×100%.
(§3) Each mouse was weighed and sacrificed. After the tumor was completely stripped off from the body of the mouse, the non-tumor tissues such as blood stains and fat were removed to weigh the tumor and calculate the tumor growth inhibition rate. The average tumor weight of each group of mice is used as an indicator of efficacy. Tumor growth inhibition rate (%)=(1−the average tumor weight of the treatment group/the average tumor weight of the model group)×100%.

[2] = system: transplanted tumor of human lymphoma cell U937; assay: U937 transplanted tumor in nude mice; settings: for Tumor Volume (mm3) (d 1): d1
Protocol: as §1, with “U937 cells in a logarithmic growth phase were taken and subjected to a trypan blue exclusion experiment showing that the cell viability was more than 95%, then the cells were subjected to trypsinization, centrifugation, and supernatant removal. Then” for “Then”
as §2, §3

[3] = system: transplanted tumor of HL60 cells; assay: HL-60 transplanted tumor in nude mice; settings: for Tumor Volume (mm3) (d30): d 30
Protocol: as §1, with “HL-60 cells in a logarithmic growth phase were taken and subjected to a trypan blue exclusion experiment showing that the cell viability was more than 95%, then the cells were subjected to trypsinization, centrifugation, and supernatant removal. Then” for “Then”, “group:” for “group: a model group, a cyclophosphamide group,”, “the” for “the body”
as §2, §3

[4] = SGC7901, 12.5 mg/kg (low dose) i.g. 30 days
[5] = SGC7901, 25 mg/kg (medium dose) i.g. 30 days
[6] = SGC7901, 50 mg/kg (high dose) i.g. 30 days
[7] = U937, high dose (100 mg/kg in method) i.g. 30 days
[8] = U937, low dose (25 mg/kg in method) i.g. 30 days
[9] = U937, medium dose (50 mg/kg in method) i.g. 30 days
[10] = HL-60, high dose (100 mg/kg in method) i.g. 30 days
[11] = HL-60, low dose (25 mg/kg in method) i.g. 30 days
[12] = HL-60, medium dose (50 mg/kg in method) i.g. 30 days

mouse weight compared with the model group ([1]; mouse, in vivo): no significant changes
mouse weight compared with the model group ([2]; mouse, in vivo): no significant changes
mouse weight compared with the model group ([3]; mouse, in vivo): no significant changes
Structure (SMILES): COC1C(OC(C)=O)CC(=O)OC(C)CC=CC=CC(OC2CCC(N(C)C)C(C)O2)C(C)CC(CC=O)C1OC1OC(C)C(OC2CC(C)(O)C(OC(=O)CC(C)C)C(C)O2)C(N(C)C)C1O (stereo not drawn) [Isovaleryl spiramycin II, isovaleryl spiramycin II]
Inhibition Rate (tumor growth inhibition rate) [1, 4]: 24.44%
Relative Tumor Proliferation Rate (T/C) [1, 4]: 70.48%
Relative Tumor Volume (RTV) [1, 4]: 7.90 ± 6.97
Tumor Volume (d 1) [1, 4]: 134.33 ± 57.77 mm3
Tumor Volume (d 30) [1, 4]: 1029.72 ± 818.01 mm3
Tumor Weight [1, 4]: 1.19 ± 0.62 g
Inhibition Rate (tumor growth inhibition rate) [1, 5]: 41.76%
Relative Tumor Proliferation Rate (T/C) [1, 5]: 51.42%
Relative Tumor Volume (RTV) [1, 5]: 6.88 ± 5.66
Tumor Volume (d 1) [1, 5]: 195.76 ± 76.95 mm3
Tumor Volume (d 30) [1, 5]: 1094.82 ± 687.01 mm3
Tumor Weight [1, 5]: 0.91 ± 0.53 g
Inhibition Rate (tumor growth inhibition rate) [1, 6]: 70.24%
Relative Tumor Proliferation Rate (T/C) [1, 6]: 36.95%
Relative Tumor Volume (RTV) [1, 6]: 6.90 ± 7.37
Tumor Volume (d 1) [1, 6]: 143.85 ± 16.25 mm3
Tumor Volume (d 30) [1, 6]: 577.98 ± 411.47 mm3
Tumor Weight [1, 6]: 0.47 ± 0.42 g
tumor volume and relative tumor volume compared with the model group ([1]; SGC7901, low, medium and high doses, P<0.05): significantly lower
Relative Tumor Proliferation Rate (T/C) [2, 7]: 46.09%
tumor growth inhibition rate [2, 7]: 43.63%
Relative Tumor Proliferation Rate (T/C) [2, 8]: 74.19%
tumor growth inhibition rate [2, 8]: 25.61%
tumor volume and relative tumor volume compared with the model group ([2]; U937, low, medium and high doses, P<0.05): significantly lower
Relative Tumor Proliferation Rate (T/C) [2, 9]: 52.10%
tumor growth inhibition rate [2, 9]: 35.44%
Inhibition Rate (%) ([2]; U937 nude mice, 12.5 mg/kg): 25.61%
Relative Tumor Proliferation Rate (T/C) ([2]; U937 nude mice, 12.5 mg/kg): 74.19%
Relative Tumor Volume (RTV) ([2]; U937 nude mice, 12.5 mg/kg): 12.64 ± 5.00
Tumor Weight ([2]; U937 nude mice, 12.5 mg/kg): 1.44 ± 0.64 g
Tumor Volume (mm3) (d 1) ([2]; U937 nude mice, 12.5 mg/kg): 111.58 ± 23.26 mm3
Tumor Volume (mm3) (d30) ([2]; U937 nude mice, 12.5 mg/kg): 1400.95 ± 558.82 mm3
Inhibition Rate (%) ([2]; U937 nude mice, 25 mg/kg): 35.44%
Relative Tumor Proliferation Rate (T/C) ([2]; U937 nude mice, 25 mg/kg): 52.10%
Relative Tumor Volume (RTV) ([2]; U937 nude mice, 25 mg/kg): 8.88 ± 2.64
Tumor Weight ([2]; U937 nude mice, 25 mg/kg): 1.25 ± 0.66 g
Tumor Volume (mm3) (d 1) ([2]; U937 nude mice, 25 mg/kg): 120.21 ± 24.68 mm3
Tumor Volume (mm3) (d30) ([2]; U937 nude mice, 25 mg/kg): 1117.59 ± 565.29 mm3
Inhibition Rate (%) ([2]; U937 nude mice, 50 mg/kg): 43.63%
Relative Tumor Proliferation Rate (T/C) ([2]; U937 nude mice, 50 mg/kg): 46.09%
Relative Tumor Volume (RTV) ([2]; U937 nude mice, 50 mg/kg): 7.85 ± 3.27
Tumor Weight ([2]; U937 nude mice, 50 mg/kg): 1.09 ± 0.62 g
Tumor Volume (mm3) (d 1) ([2]; U937 nude mice, 50 mg/kg): 111.50 ± 7.03 mm3
Tumor Volume (mm3) (d30) ([2]; U937 nude mice, 50 mg/kg): 885.75 ± 418.53 mm3
Body Weight (g) (d1) ([2]; mouse, in vivo, 12.5 mg/kg): 21.10 ± 0.64 g
Body Weight (g) (d30) ([2]; mouse, in vivo, 12.5 mg/kg): 20.97 ± 0.74 g
Body Weight (g) (d1) ([2]; mouse, in vivo, 25 mg/kg): 21.05 ± 0.30 g
Body Weight (g) (d30) ([2]; mouse, in vivo, 25 mg/kg): 21.03 ± 0.632 g
Body Weight (g) (d1) ([2]; mouse, in vivo, 50 mg/kg): 20.80 ± 0.51 g
Body Weight (g) (d30) ([2]; mouse, in vivo, 50 mg/kg): 21.22 ± 0.51 g
Relative Tumor Proliferation Rate (T/C) [3, 10]: 41.36%
tumor growth inhibition rate [3, 10]: 51.81%
Relative Tumor Proliferation Rate (T/C) [3, 11]: 75.39%
tumor growth inhibition rate [3, 11]: 15.92%
tumor volume and relative tumor volume compared with the model group ([3]; HL-60, low, medium and high doses, P<0.05): significantly lower
Relative Tumor Proliferation Rate (T/C) [3, 12]: 65.18%
tumor growth inhibition rate [3, 12]: 29.48%
Inhibition Rate (%) ([3]; dose 25 mg/kg): 15.92%
Relative Tumor Proliferation Rate (T/C) ([3]; dose 25 mg/kg): 75.39%
Relative Tumor Volume (RTV) ([3]; dose 25 mg/kg): 8.48 ± 1.37
Tumor Weight ([3]; dose 25 mg/kg): 1.90 ± 0.33 g
Tumor Volume (mm3) (d 1) ([3]; dose 25 mg/kg): 189.51 ± 28.58 mm3
Tumor Volume (mm3) (d30) ([3]; dose 25 mg/kg): 1596.76 ± 293.76 mm3
Inhibition Rate (%) ([3]; dose 50 mg/kg): 29.48%
Relative Tumor Proliferation Rate (T/C) ([3]; dose 50 mg/kg): 65.18%
Relative Tumor Volume (RTV) ([3]; dose 50 mg/kg): 7.33 ± 2.36
Tumor Weight ([3]; dose 50 mg/kg): 1.60 ± 0.45 g
Tumor Volume (mm3) (d 1) ([3]; dose 50 mg/kg): 184.06 ± 32.38 mm3
Tumor Volume (mm3) (d30) ([3]; dose 50 mg/kg): 1344.04 ± 466.62 mm3
Inhibition Rate (%) ([3]; dose 100 mg/kg): 51.81%
Relative Tumor Proliferation Rate (T/C) ([3]; dose 100 mg/kg): 41.36%
Relative Tumor Volume (RTV) ([3]; dose 100 mg/kg): 4.65 ± 1.77
Tumor Weight ([3]; dose 100 mg/kg): 1.09 ± 0.34 g
Tumor Volume (mm3) (d 1) ([3]; dose 100 mg/kg): 184.80 ± 33.56 mm3
Tumor Volume (mm3) (d30) ([3]; dose 100 mg/kg): 834.34 ± 308.27 mm3
Body Weight (g) (d1) ([3]; mouse, in vivo, 25 mg/kg): 20.78 ± 1.31 g
Body Weight (g) (d30) ([3]; mouse, in vivo, 25 mg/kg): 20.59 ± 1.54 g
Body Weight (g) (d1) ([3]; mouse, in vivo, 50 mg/kg): 21.01 ± 1.20 g
Body Weight (g) (d30) ([3]; mouse, in vivo, 50 mg/kg): 20.72 ± 1.29 g
Body Weight (g) (d1) ([3]; mouse, in vivo, 100 mg/kg): 20.65 ± 1.27 g
Body Weight (g) (d30) ([3]; mouse, in vivo, 100 mg/kg): 20.32 ± 1.55 g
